pIC50, pKi: −log10 of the molar value. Blank lines part the entries; values can stand above or below the molecule they belong to.
Key:
[1] = biological target: T1, Alpha-1A adrenergic receptor (Homo sapiens, UniProt P35348)
T1 sequence (P35348 whole entry): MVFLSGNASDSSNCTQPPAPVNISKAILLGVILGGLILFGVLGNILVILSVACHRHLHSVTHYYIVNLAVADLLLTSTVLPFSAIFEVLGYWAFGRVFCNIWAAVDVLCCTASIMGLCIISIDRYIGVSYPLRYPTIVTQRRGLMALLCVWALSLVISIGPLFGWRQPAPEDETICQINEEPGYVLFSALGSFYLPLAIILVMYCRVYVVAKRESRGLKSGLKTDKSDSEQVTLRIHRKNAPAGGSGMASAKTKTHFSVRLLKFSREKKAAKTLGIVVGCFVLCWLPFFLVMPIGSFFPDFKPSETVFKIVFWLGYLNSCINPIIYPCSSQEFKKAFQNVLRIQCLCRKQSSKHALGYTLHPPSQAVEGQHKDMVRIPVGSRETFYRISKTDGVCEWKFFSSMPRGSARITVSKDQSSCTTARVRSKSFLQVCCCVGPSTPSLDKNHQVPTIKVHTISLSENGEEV
Description: Binding affinity to alpha1A receptor

Hepatocyte [2] = conditions: human, hepatocytes, 2.5 h
Description: Metabolic stability in human hepatocytes assessed as compound remaining at 50 MBq after 150 mins by radioactivity-based HPLC analysis

[3] = biological target: T2, 5-hydroxytryptamine receptor 1A (Homo sapiens, UniProt P08908); assay: biochemical
T2 sequence (P08908 whole entry): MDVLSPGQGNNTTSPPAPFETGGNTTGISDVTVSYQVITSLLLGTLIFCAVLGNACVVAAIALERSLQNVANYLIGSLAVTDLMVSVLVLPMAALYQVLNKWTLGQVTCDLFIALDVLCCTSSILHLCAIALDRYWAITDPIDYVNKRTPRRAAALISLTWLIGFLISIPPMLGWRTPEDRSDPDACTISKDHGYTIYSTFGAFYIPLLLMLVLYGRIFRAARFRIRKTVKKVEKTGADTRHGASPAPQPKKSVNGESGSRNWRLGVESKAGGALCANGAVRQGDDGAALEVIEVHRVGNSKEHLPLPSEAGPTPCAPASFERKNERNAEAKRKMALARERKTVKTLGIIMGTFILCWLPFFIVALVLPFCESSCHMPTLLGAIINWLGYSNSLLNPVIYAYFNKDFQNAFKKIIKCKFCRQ
Description: Displacement of [3H]8-OH-DPAT from human 5HT1A receptor expressed in HEK293 EBNA cells after 2 hrs by liquid scintillation counting

physchem = conditions: buffer, pH 7.4
D(4) dopamine receptor = biological target: T3, D(4) dopamine receptor (Homo sapiens, UniProt P21917); assay: biochemical
T3 sequence (P21917 whole entry): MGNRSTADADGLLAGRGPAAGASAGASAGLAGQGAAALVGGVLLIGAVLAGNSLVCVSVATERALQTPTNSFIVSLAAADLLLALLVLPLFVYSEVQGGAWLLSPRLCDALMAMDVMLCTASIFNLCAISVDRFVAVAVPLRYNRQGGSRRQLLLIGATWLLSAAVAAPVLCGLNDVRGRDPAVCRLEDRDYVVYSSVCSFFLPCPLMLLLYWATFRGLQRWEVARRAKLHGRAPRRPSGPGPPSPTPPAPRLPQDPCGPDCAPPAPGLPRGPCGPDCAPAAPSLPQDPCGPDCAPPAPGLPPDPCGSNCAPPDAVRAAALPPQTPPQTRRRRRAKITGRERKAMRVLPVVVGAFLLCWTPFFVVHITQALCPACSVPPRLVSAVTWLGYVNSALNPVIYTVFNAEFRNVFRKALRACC
Description: Displacement of [3H]N-methylspiperone from dopamine D4 receptor expressed in HEK293 EBNA cells by radioligand binding assay

[4] = biological target: T4, Alpha-1D adrenergic receptor (Homo sapiens, UniProt P25100); assay: biochemical
T4 sequence (P25100 whole entry): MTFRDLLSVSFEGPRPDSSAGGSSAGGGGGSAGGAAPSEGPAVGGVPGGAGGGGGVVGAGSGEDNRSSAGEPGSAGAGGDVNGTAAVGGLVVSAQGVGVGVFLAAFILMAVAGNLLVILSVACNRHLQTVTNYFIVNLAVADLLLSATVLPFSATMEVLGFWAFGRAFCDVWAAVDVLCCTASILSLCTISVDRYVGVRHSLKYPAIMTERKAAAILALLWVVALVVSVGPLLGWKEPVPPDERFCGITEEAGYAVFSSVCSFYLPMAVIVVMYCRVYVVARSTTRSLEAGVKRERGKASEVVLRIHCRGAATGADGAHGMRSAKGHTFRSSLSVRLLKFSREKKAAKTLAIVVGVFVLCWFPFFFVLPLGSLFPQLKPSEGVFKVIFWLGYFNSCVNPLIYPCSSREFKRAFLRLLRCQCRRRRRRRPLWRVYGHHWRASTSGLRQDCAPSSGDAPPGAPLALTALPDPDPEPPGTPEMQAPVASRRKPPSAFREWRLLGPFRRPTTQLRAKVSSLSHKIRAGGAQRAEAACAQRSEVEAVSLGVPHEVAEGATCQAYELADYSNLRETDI
Description: Displacement of [3H]prazosin from Alpha-1D receptor expressed in HEK293 EBNA cells by radioligand binding assay

[5] = biological target: T5, Alpha-1B adrenergic receptor (Homo sapiens, UniProt P35368); assay: biochemical
T5 sequence (P35368 whole entry): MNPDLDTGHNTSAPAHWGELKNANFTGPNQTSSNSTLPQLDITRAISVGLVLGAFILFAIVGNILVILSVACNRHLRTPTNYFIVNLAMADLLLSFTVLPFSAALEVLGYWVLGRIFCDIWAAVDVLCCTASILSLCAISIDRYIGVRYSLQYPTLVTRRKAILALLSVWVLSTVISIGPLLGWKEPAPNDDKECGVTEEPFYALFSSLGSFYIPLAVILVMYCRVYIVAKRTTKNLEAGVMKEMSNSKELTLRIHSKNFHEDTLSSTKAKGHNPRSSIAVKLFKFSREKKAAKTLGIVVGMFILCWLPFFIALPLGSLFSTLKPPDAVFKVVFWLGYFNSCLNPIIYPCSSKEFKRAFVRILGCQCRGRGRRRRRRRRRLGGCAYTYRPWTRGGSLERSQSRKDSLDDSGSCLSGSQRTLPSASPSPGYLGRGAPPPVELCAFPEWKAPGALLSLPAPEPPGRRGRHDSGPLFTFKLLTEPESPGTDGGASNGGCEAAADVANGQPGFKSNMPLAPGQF
Description: Displacement of [3H]prazosin from Alpha-1B receptor expressed in HEK293 EBNA cells by radioligand binding assay

[6] = biological target: T1, Alpha-1A adrenergic receptor; assay: biochemical
Description: Displacement of [3H]prazosin from alpha1A receptor expressed in HEK293 EBNA cells by radioligand binding assay

[7] = biological target: 5-hydroxytryptamine receptor 1D (Homo sapiens, UniProt P28221); assay: biochemical
Description: Displacement of [3H]GR127543 from 5HT1D receptor expressed in HEK293 EBNA cells by radioligand binding assay

[8] = biological target: 5-hydroxytryptamine receptor 7 (Homo sapiens, UniProt P34969); assay: biochemical
Description: Displacement of [3H]LSD from 5HT7 receptor expressed in HEK293 EBNA cells by radioligand binding assay

[9] = biological target: 5-hydroxytryptamine receptor 2B (Homo sapiens, UniProt P41595); assay: biochemical
Description: Displacement of [3H]LSD from 5HT2B receptor expressed in HEK293 EBNA cells by radioligand binding assay

[10] = biological target: T2, 5-hydroxytryptamine receptor 1A; assay: biochemical; remark: listed apart in the source
Description: Displacement of [3H]8-OH-DPAT from 5HT1A receptor expressed in HEK293 EBNA cells by radioligand binding assay

Hepatocyte [11] = conditions: human, hepatocytes, 1 h
Description: Metabolic stability in human hepatocytes assessed as compound remaining at 50 MBq after 60 mins by radioactivity-based HPLC analysis

Hepatocyte [12] = conditions: human, hepatocytes, 0.25 h
Description: Metabolic stability in human hepatocytes assessed as compound remaining at 50 MBq after 15 mins by radioactivity-based HPLC analysis

Sequence of 5-hydroxytryptamine receptor 7 (P34969 whole entry): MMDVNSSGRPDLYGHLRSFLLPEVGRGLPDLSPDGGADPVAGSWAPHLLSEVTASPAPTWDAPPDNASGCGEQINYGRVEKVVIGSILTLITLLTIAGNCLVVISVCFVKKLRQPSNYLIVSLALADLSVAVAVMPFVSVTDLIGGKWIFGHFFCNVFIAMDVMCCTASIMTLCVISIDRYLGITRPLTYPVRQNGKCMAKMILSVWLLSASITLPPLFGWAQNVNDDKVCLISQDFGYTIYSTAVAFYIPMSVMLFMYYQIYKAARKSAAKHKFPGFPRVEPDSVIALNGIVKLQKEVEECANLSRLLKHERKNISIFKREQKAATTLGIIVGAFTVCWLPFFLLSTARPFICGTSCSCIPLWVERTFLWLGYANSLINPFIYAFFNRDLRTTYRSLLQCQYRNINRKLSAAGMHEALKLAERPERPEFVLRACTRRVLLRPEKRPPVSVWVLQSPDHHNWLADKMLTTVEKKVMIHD
Sequence of 5-hydroxytryptamine receptor 2B (P41595 whole entry): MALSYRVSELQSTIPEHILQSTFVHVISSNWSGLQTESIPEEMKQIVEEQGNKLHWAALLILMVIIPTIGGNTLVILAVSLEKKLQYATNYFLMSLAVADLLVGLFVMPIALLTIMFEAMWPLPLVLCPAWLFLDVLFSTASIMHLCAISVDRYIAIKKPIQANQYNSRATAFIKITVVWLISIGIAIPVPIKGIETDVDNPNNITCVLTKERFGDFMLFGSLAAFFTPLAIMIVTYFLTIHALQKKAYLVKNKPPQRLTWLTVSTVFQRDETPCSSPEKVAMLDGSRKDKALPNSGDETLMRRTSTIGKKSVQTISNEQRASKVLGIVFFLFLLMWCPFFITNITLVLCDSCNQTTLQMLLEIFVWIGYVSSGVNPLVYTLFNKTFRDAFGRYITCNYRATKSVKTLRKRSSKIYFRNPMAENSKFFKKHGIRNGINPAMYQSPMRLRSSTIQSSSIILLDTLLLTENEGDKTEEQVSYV
Sequence of 5-hydroxytryptamine receptor 1D (P28221 whole entry): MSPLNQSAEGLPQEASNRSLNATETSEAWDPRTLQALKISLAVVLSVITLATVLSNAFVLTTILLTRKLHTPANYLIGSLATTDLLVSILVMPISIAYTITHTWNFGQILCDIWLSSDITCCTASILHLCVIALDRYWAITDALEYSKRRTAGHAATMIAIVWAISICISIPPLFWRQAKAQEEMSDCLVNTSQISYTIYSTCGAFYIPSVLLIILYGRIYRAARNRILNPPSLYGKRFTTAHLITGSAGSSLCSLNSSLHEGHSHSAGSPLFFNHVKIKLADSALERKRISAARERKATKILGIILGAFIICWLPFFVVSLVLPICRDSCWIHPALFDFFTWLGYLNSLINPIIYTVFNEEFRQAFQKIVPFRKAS

SMILES: COc1ccccc1N1CCN(CCN(C(=O)c2ccc([18F])cc2)c2ccccn2)CC1
- pKi [1]: 6.82
- Stability (Hepatocyte [2]): 8.4%

SMILES: COc1ccccc1N1CCN(CCN(C(=O)C23C4C5C2C2C3C4C52CF)c2ccccn2)CC1 (centres undefined)
- logD (physchem): 2.94
- pIC50 [3]: 8.90
- pKi [3]: 9.27
- pKi (D(4) dopamine receptor): 7.15
- pKi [4]: 7.57
- pKi [5]: 6.75
- pKi [6]: 7.80
- pKi [7]: 6.91
- pKi [8]: 6.88
- pKi [9]: 7.00
- pKi [10]: 9.70

SMILES: O=C(N(CCN1CCN(c2ccccc2O)CC1)c1ccccn1)C12CC3CC(CC(CF)(C3)C1)C2
- pIC50 [3]: 8.59
- pKi [3]: 8.96

SMILES: O=C(N(CCN1CCN(c2ccccc2O)CC1)c1ccccn1)C12C3C4C1C1C2C3C41CF (centres undefined)
- pIC50 [3]: 8.87
- pKi [3]: 9.24

SMILES: COc1ccccc1N1CCN(CCN(C(=O)C23C4C5C2C2C3C4C52C[18F])c2ccccn2)CC1 (centres undefined)
- Stability (Hepatocyte [2]): 17.4%
- Stability (Hepatocyte [11]): 30.7%
- Stability (Hepatocyte [12]): 73.2%

SMILES: COc1ccccc1N1CCN(CCN(C(=O)c2ccc([18F])c(C)c2)c2ccccn2)CC1
- pKi [1]: 7.88

Results, then the molecule that gave them:

- pIC50 [3]: 8.37
- pKi [3]: 8.74
SMILES: COc1ccccc1N1CCN(CCN(C(=O)C23CC4CC(CC(CF)(C4)C2)C3)c2ccccn2)CC1

- logD (physchem): 3.37
- pIC50 [3]: 8.82
- pKi [3]: 9.19
- pKi (D(4) dopamine receptor): 7.08
- pKi [4]: 7.14
- pKi [5]: 6.96
- pKi [6]: 7.13
- pKi [7]: 6.44
- pKi [8]: 7.11
- pKi [9]: 7.10
- pKi [10]: 8.96
SMILES: COc1ccccc1N1CCN(CCN(C(=O)C23CCC(CF)(CC2)CC3)c2ccccn2)CC1

- logD (physchem): 2.7
- pIC50 [3]: 8.69
- pKi [3]: 9.07
- pKi (D(4) dopamine receptor): 7.04
- pKi [4]: 7.72
- pKi [5]: 7.42
- pKi [6]: 7.44
- pKi [7]: 7.04
- pKi [8]: 7.01
- pKi [9]: 7.06
- pKi [10]: 9.05
SMILES: COc1ccccc1N1CCN(CCN(C(=O)C23CCC(CF)(CC2)C3)c2ccccn2)CC1

- pIC50 [3]: 8.75
- pKi [3]: 9.12
SMILES: O=C(N(CCN1CCN(c2ccccc2O)CC1)c1ccccn1)C12CCC(CF)(CC1)CC2

- pIC50 [3]: 8.76
- pKi [3]: 9.13
SMILES: O=C(N(CCN1CCN(c2ccccc2O)CC1)c1ccccn1)C12CCC(CF)(CC1)C2

Reference: ChEMBL document CHEMBL1909551, “Design, synthesis and in vitro evaluation of bridgehead fluoromethyl analogs of N-{2-[4-(2-methoxyphenyl)piperazin-1-yl]ethyl}-N-(pyridin-2-yl)cyclohexanecarboxamide (WAY-100635) for the 5-HT(1A) receptor” (Eur J Med Chem, 2011)
